Data as given in patent US9650395B2, “Antibacterial compounds and methods for use” (PTC Therapeutics, Inc., priority 2011, dated 2017).

Key:
[1] = test system: Gram-positive Staphylococcus aureus (S. aureus) 29213; test: Antibacterial activity, microbroth dilution MIC, S. aureus 29213; type: cell-based; conditions: Staphylococcus aureus; S. aureus 29213, microbroth dilution; read-out: MIC, 29213
[2] = test system: resistant K. pneumoniae MXX1232 (MDR clinical isolate); test: Antibacterial activity, MIC, resistant K. pneumoniae MXX1232; type: cell-based, Klebsiella pneumoniae; conditions: Klebsiella pneumoniae; resistant K. pneumoniae MMX1232, MDR clinical isolate; read-out: MIC MMX1232
[3] = test system: quinolone resistant E. coli LZ3111; test: Antibacterial activity, MIC, quinolone resistant E. coli LZ3111; type: cell-based, Escherichia coli; conditions: Escherichia coli, read-out: MIC, LZ3111
Source text: (§1) The antibacterial activity from a microbroth dilution method may be presented as the minimum inhibitory concentration (MIC in […]). The MIC value is the lowest concentration of a drug which prevents macroscopically visible bacterial growth under test conditions.
Mutations in these regions are known to confer a high level resistance to the quinolone class of antibiotics.

[4] = test system: super sensitive Gram-negative Escherichia coli (E. coli) BAS849; test: Antibacterial activity, microbroth dilution MIC, E. coli BAS849; type: cell-based; conditions: Escherichia coli; E. coli BAS849, microbroth dilution; read-out: MIC, BAS849
[5] = test system: resistant A. baumannii MXX2240 (MDR clinical isolate); test: Antibacterial activity, MIC, resistant A. baumannii MXX2240; type: cell-based, Acinetobacter baumannii; conditions: Acinetobacter baumannii, resistant A. baumannii MMX2240, MDR clinical isolate; read-out: MIC MMX2240
[6] = test system: Acinetobacter baumannii (A. baumannii) BAA747; test: Antibacterial activity, MIC, A. baumannii BAA747; type: cell-based; conditions: Acinetobacter baumannii; A. baumannii BAA747; read-out: MIC BAA747
[7] = test system: control Gram-negative E. coli 25922 strain; test: Antibacterial activity, microbroth dilution MIC, E. coli 25922; type: cell-based, Escherichia coli; conditions: Escherichia coli; E. coli 25922, microbroth dilution; read-out: MIC, 25922
[8] = test system: Klebsiella pneumoniae (K. pneumoniae) 35657; test: Antibacterial activity, MIC, K. pneumoniae 35657; type: cell-based; conditions: Klebsiella pneumoniae
[9] = test system: Pseudomonas aeruginosa (P. aeruginosa) 27853; test: Antibacterial activity, MIC, P. aeruginosa 27853; type: cell-based; conditions: Pseudomonas aeruginosa, P. aeruginosa 27853; read-out: MIC 27853
Source text: as §1
Antibacterial activity of test compounds against the Gram-negative bacterium Pseudomonas aeruginosa (P. aeruginosa) 27853 is shown in Table 5.

Measured: MIC

Cc1cc(N2C[C@@H]3[C@@H](N)[C@@H]3C2)ccc1-c1[nH]c(=O)c(C(=O)O)c(O)c1C [Cpd 318, 6-(4-((1R,5S,6s)-6-amino-3-azabicyclo[3.1.0]hexan-3-yl)-2-methylphenyl)-4-hydroxy-5-methyl-2-oxo-1,2-dihydropyridine-3-carboxylic acid]
3.5 to 12.5 mg/L: [4]
12.5 to 150 mg/L: all other assays above

CCc1c(-c2ccc(N3CC4(CCN(C)CC4)C3)cc2)[nH]c(=O)c(C(=O)O)c1O [Cpd 319, 5-ethyl-4-hydroxy-6-(4-(7-methyl-2,7-diazaspiro[3.5]nonan-2-yl)phenyl)-2-oxo-1,2-dihydropyridine-3-carboxylic acid]
3.5 to 12.5 mg/L: [7] | [8]
< 1 mg/L: [4]
12.5 to 150 mg/L: all other assays above

CCc1c(-c2ccc(N3CC4(CCNCC4)C3)cc2)[nH]c(=O)c(C(=O)O)c1O [Cpd 320, 6-(4-(2,7-diazaspiro[3.5]nonan-2-yl)phenyl)-5-ethyl-4-hydroxy-2-oxo-1,2-dihydropyridine-3-carboxylic acid]
3.5 to 12.5 mg/L: [4] | [8]
12.5 to 150 mg/L: all other assays above

CCc1c(-c2ccc(N3CCC4(CCNC4)C3)cc2)[nH]c(=O)c(C(=O)O)c1O (stereo not drawn) [Cpd 321, 6-(4-(2,7-diazaspiro[4.4]nonan-2-yl)phenyl)-5-ethyl-4-hydroxy-2-oxo-1,2-dihydropyridine-3-carboxylic acid]
3.5 to 12.5 mg/L: [8]
1 to 3.5 mg/L: [4]
12.5 to 150 mg/L: all other assays above

CCc1c(-c2ccc(N3CCC4(CCN(C)C4)C3)cc2)[nH]c(=O)c(C(=O)O)c1O (stereo not drawn) [Cpd 322, 5-ethyl-4-hydroxy-6-(4-(7-methyl-2,7-diazaspiro[4.4]nonan-2-yl)phenyl)-2-oxo-1,2-dihydropyridine-3-carboxylic acid]
1 to 3.5 mg/L: [6] | [8]
< 1 mg/L: [4] | [7]
3.5 to 12.5 mg/L: [1] | [9]
12.5 to 150 mg/L: all other assays above

CCc1c(-c2ccc(N3CC4(CCCN4)C3)cc2)[nH]c(=O)c(C(=O)O)c1O [Cpd 323, 6-(4-(2,5-diazaspiro[3.4]octan-2-yl)phenyl)-5-ethyl-4-hydroxy-2-oxo-1,2-dihydropyridine-3-carboxylic acid]
1 to 3.5 mg/L: [4]
3.5 to 12.5 mg/L: [3] | [7]
12.5 to 150 mg/L: all other assays above

CCc1c(-c2ccc(N3CC4(CNC4)C3)cc2)[nH]c(=O)c(C(=O)O)c1O [Cpd 324, 6-(4-(2,6-diazaspiro[3.3]heptan-2-yl)phenyl)-5-ethyl-4-hydroxy-2-oxo-1,2-dihydropyridine-3-carboxylic acid]
3.5 to 12.5 mg/L: [4]
12.5 to 150 mg/L: all other assays above

CCNc1ccc(-c2[nH]c(=O)c(C(=O)O)c(O)c2CC)cc1 [Cpd 325, 5-ethyl-6-(4-(ethylamino)phenyl)-4-hydroxy-2-oxo-1,2-dihydropyridine-3-carboxylic acid]
< 1 mg/L: [4]
3.5 to 12.5 mg/L: [6] | [7] | [8]
12.5 to 150 mg/L: all other assays above

CCc1c(-c2ccc(NC)cc2)[nH]c(=O)c(C(=O)O)c1O [Cpd 326, 5-ethyl-4-hydroxy-6-(4-(methylamino)phenyl)-2-oxo-1,2-dihydropyridine-3-carboxylic acid]
1 to 3.5 mg/L: [6]
< 1 mg/L: [4]
3.5 to 12.5 mg/L: [5] | [7] | [8]
12.5 to 150 mg/L: all other assays above
